The values below come from US7582664B2, “Acylaminothiazole derivatives, preparation method thereof and use of same in therapeutics” (Sanofi-Aventis, priority 2004, dated 2009).

The target of the assay is T1, gamma-secretase (Homo sapiens, UniProt P49768, M146L).
T1 construct: expressed in transfected cells; host or cells: CHO-K1 clone 30-12, co-expressing CT100 of APP and PS1 M146L
The experiment in a line: β-amyloid cellular test: inhibition of production of β-amyloid (β-A4) peptide, ELISA of cell supernatants. Format: cell-based. The following applies: line CHO-K1 co-expressing the CT100 of APP and PS1 M146L clone 30-12; incubated 24-25 hours; secreted amyloid peptide by ELISA; read-out: EC50 (50% effective concentration), inhibition of production of the β-amyloid (β-A4) peptide. The source says: For the β-amyloid cellular test, the line CHO-K1 co-expressing the CT100 of APP and PS1 M146L clone 30-12 is used. The line targets the inhibition of gamma-secretase. […]
The amount of bound peptide is detected indirectly in the presence of a competitor corresponding to the truncated peptide, the biotin-coupled peptide 1-28, which is then detected with alkaline phosphatase-coupled streptavidin. The substrate, p-nitrophenyl phosphate (pNPP FAST p-Nitrophenyl Phosphate, Sigma N2770) gives a yellow soluble reaction product that can be read at 405 nm. […] After incubation for 30 minutes at room temperature, the reaction is quenched by adding 100 μl per well of 0.1M EDTA and the reading is taken at 405 nm.

For `CCC[C@H](NC(=O)Cc1cc(F)cc(F)c1)C(=O)Nc1nc(C(=O)OC)c(-c2ccccc2Oc2ccc(F)cc2)s1` [Compound 13, Methyl 2-{2-(S)-[2-(3,5-difluorophenyl)acetylamino]-pentanoyl}amino-5-[2-(4-fluorophenoxy)phenyl]thiazole-4-carboxylate], the EC50 was determined as 6 nM.
